According to the supplement of paper PMC10307832:

Legend:
Assay in all cases: relative viability (nuclei count vs DMSO), 5 days (fraction); higher = more cells survive
Carfilzomib + Trametinib = compound: CC(C)C[C@H](NC(=O)[C@H](CCc1ccccc1)NC(=O)CN1CCOCC1)C(=O)N[C@@H](Cc1ccccc1)C(=O)N[C@@H](CC(C)C)C(=O)[C@@]1(C)CO1 [Carfilzomib] + CC(=O)Nc1cccc(-n2c(=O)n(C3CC3)c(=O)c3c(Nc4ccc(I)cc4F)n(C)c(=O)c(C)c32)c1 [Trametinib] (partner 0.02 µM)
Summary of the method: (§1)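 Lung cancer cell lines in 1536-well plates were dosed by pin tool the day after seeding, either with one drug alone or with a fixed anchor-drug dose plus five library-drug doses (not always all listed) in √10 steps. After 5 days, cells were fixed and their nuclei stained in one step (final 0.05% Triton X-100, 1% formaldehyde, 1 ug/ml Hoechst), then counted on 4× images. Relative viability is the nuclei count in treated wells divided by that in vehicle wells. Values are medians of duplicate plates.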

Carfilzomib + Vorinostat = compound: CC(C)C[C@H](NC(=O)[C@H](CCc1ccccc1)NC(=O)CN1CCOCC1)C(=O)N[C@@H](Cc1ccccc1)C(=O)N[C@@H](CC(C)C)C(=O)[C@@]1(C)CO1 [Carfilzomib] + O=C(CCCCCCC(=O)Nc1ccccc1)NO [Vorinostat] (partner 1 µM)
Summary of the method: as §1

Crizotinib + Tozasertib = compound: C[C@@H](Oc1cc(-c2cnn(C3CCNCC3)c2)cnc1N)c1c(Cl)ccc(F)c1Cl [Crizotinib] + Cc1cc(Nc2cc(N3CCN(C)CC3)nc(Sc3ccc(NC(=O)C4CC4)cc3)n2)n[nH]1 [Tozasertib] (partner 0.1 µM)
Summary of the method: as §1

Olaparib + Phenformin = compound: O=C(c1cc(Cc2n[nH]c(=O)c3ccccc23)ccc1F)N1CCN(C(=O)C2CC2)CC1 [Olaparib] + N=C(N)NC(=N)NCCc1ccccc1 [Phenformin] (partner 250 µM)
Summary of the method: as §1

| Cell Line | relative viability (Carfilzomib + Trametinib; first compound 0.001 µM) | relative viability (Carfilzomib + Trametinib; first compound 0.003162 µM) | relative viability (Carfilzomib + Trametinib; first compound 0.01 µM) | relative viability (Carfilzomib + Trametinib; first compound 0.03162 µM) | relative viability (Carfilzomib + Trametinib; first compound 0.1 µM) | relative viability (Carfilzomib + Vorinostat; first compound 0.001 µM) | relative viability (Carfilzomib + Vorinostat; first compound 0.003162 µM) | relative viability (Carfilzomib + Vorinostat; first compound 0.01 µM) | relative viability (Carfilzomib + Vorinostat; first compound 0.03162 µM) | relative viability (Carfilzomib + Vorinostat; first compound 0.1 µM) | relative viability (Crizotinib + Tozasertib; first compound 0.01 µM) | relative viability (Crizotinib + Tozasertib; first compound 0.03162 µM) | relative viability (Crizotinib + Tozasertib; first compound 0.1 µM) | relative viability (Crizotinib + Tozasertib; first compound 0.3162 µM) | relative viability (Crizotinib + Tozasertib; first compound 1 µM) | relative viability (Olaparib + Phenformin; first compound 0.08 µM) | relative viability (Olaparib + Phenformin; first compound 0.253 µM) | relative viability (Olaparib + Phenformin; first compound 2.53 µM) | relative viability (Olaparib + Phenformin; first compound 8 µM) |
| --- | --- | --- | --- | --- | --- | --- | --- | --- | --- | --- | --- | --- | --- | --- | --- | --- | --- | --- | --- |
| RERF-LC-KJ | 0.864 | 0.908 | 0.941 | 0.511 | 0.211 | 0.7 | 0.683 | 0.676 | 0.392 | 0.242 | 0.455 | 0.516 | 0.49 | 0.477 | 0.527 | 0.406 | 0.465 | 0.433 | 0.51 |
| NCI-H647 | 0.415 | 0.529 | 0.538 | 0.0767 | 0.0407 | 0.69 | 0.483 | 0.137 | 0.0309 | 0.0228 | 0.267 | 0.305 | 0.248 | 0.26 | 0.204 | 0.69 | 0.431 | 0.518 | 0.507 |
| 201T | 0.712 | 0.705 | 0.718 | 0.734 | 0.679 | 0.929 | 1 | 0.985 | 0.93 | 0.514 | 0.924 | 0.947 | 0.921 | 0.927 | 0.978 | 0.396 | 0.465 | 0.481 | 0.43 |
| HCC-366 | 0.345 | 0.388 | 0.405 | 0.293 | 0.0458 | 0.315 | 0.444 | 0.313 | 0.0693 | 0.0215 | 0.143 | 0.0981 | 0.106 | – | 0.136 | 0.768 | 0.583 | 0.489 | 0.413 |
| HOP-62 | 0.385 | 0.38 | 0.363 | 0.21 | 0.0811 | 0.559 | 0.632 | 0.215 | 0.0689 | 0.0634 | 0.396 | 0.33 | 0.354 | 0.322 | 0.383 | 0.783 | 0.644 | 0.762 | 0.478 |
| NCI-H1734 | 0.67 | 0.785 | 0.627 | 0.641 | 0.152 | 0.75 | 0.932 | 0.592 | 0.119 | 0.109 | 0.247 | 0.27 | 0.253 | – | 0.257 | 0.46 | 0.325 | 0.35 | 0.372 |
| NCI-H522 | 0.777 | 0.767 | 0.815 | 0.506 | 0.336 | 0.888 | 1.01 | 0.841 | 0.426 | 0.412 | 0.509 | 0.492 | 0.503 | 0.596 | 0.471 | 0.665 | 0.722 | 0.582 | 0.562 |
| SW 900 | – | 0.804 | 0.163 | 0.177 | 0.126 | – | 0.469 | 0.198 | 0.168 | 0.188 | 0.657 | 0.541 | 0.512 | 0.52 | 0.613 | 0.614 | 0.525 | 0.558 | 0.555 |
| ChaGo-K-1 | 0.873 | 0.924 | 0.878 | 0.47 | 0.168 | 0.718 | 0.802 | 0.589 | 0.235 | 0.157 | 0.24 | 0.222 | 0.222 | 0.209 | 0.246 | 0.624 | 0.441 | 0.475 | 0.42 |
